# From ChEMBL document CHEMBL1201862, “PubChem BioAssay data set” (2004)
# Activity calls are given as the source filed them.
# Assays:
# P388/ADR = assay: cells; assay type: functional; conditions: Mus musculus
# P388 = assay: cells; assay type: functional; conditions: Mus musculus
# SN12K1 = assay: cells; assay type: functional; conditions: Homo sapiens
# [1] = biological target: T1, Replicative DNA helicase DnaB (Mycobacterium tuberculosis, UniProt P9WMR3); assay: DnaB intein splicing inhibitors, dose response, biochemical, cell-free fluorescence (AID 449749); assay type: functional
# T1 sequence (P9WMR3 whole entry): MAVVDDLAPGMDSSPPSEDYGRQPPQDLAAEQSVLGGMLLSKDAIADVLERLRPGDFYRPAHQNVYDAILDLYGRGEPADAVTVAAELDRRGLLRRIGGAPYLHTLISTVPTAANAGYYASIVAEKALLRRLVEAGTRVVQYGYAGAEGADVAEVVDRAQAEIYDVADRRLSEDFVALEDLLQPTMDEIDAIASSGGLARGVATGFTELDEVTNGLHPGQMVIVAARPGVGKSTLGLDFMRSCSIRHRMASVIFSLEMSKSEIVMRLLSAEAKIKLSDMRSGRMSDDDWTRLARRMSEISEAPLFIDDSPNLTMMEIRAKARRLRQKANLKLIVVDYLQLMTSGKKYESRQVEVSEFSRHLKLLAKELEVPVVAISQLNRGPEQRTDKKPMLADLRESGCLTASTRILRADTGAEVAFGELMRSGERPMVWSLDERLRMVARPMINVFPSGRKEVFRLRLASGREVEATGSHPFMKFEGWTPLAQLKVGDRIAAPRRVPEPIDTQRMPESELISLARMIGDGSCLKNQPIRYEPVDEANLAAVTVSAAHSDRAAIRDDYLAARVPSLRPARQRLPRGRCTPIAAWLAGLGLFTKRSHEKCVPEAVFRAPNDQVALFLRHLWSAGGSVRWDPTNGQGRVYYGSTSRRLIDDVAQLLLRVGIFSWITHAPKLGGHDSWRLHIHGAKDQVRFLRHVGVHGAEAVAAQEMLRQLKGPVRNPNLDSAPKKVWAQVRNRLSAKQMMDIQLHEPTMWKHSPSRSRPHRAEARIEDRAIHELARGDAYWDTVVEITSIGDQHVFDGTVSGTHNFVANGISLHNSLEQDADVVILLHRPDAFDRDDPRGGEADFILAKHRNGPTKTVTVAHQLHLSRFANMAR
# Nonstructural protein 1 = Nonstructural protein 1 (Influenza A virus, UniProt Q194T2); assay type: functional, Influenza A virus (A/California/07/2009(H1N1))
# Sequence of Nonstructural protein 1 (Q194T2 whole entry): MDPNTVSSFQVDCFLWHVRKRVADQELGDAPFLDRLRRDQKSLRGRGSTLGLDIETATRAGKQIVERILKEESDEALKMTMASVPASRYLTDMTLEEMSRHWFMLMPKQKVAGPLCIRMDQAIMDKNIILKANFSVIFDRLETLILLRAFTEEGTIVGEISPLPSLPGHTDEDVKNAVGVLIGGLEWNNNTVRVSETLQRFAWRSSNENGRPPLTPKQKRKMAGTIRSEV
# Protein RecA = biological target: T2, Protein RecA (Mycobacterium tuberculosis, UniProt P9WHJ3); assay: Fluorescence Cell-Free Homogeneous Dose Retest to Identify Inhibitors of RecA-Intein Splicing Activity. [Related pubchem assays (depositor defined):AID2097, AID2223, AID489010, AID492950]; assay type: functional
# T2 sequence (P9WHJ3 whole entry): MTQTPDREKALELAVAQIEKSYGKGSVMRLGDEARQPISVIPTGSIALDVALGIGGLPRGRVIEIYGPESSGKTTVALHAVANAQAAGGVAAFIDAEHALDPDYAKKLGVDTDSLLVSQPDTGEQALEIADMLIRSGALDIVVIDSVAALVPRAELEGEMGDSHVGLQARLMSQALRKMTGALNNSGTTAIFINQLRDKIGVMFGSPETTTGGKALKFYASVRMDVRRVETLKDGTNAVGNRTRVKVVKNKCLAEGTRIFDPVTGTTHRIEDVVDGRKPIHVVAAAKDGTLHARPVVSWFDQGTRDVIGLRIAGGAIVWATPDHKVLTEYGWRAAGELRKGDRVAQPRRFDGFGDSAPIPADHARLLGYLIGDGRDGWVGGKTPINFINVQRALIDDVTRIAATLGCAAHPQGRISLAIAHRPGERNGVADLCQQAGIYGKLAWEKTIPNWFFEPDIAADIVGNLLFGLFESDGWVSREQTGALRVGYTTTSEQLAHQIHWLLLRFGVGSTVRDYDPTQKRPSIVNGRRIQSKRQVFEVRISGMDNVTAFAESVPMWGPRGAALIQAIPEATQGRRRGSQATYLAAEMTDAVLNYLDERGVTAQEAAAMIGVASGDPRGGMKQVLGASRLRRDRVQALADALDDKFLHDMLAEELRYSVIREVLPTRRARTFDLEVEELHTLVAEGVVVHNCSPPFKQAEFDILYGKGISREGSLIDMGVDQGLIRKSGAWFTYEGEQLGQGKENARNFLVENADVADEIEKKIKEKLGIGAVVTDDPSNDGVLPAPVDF
# [2] = HEK-293T viability loss after treatment – luminescence, T-cell screen hits, cytotoxicity control for TCR NF-kB inhibitor project, dose response (AID 489026); assay type: functional, cell-based;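 also: cells exposed to compound about 14 hours before the viability readout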
# [3] = viability of HCT116 lacking mutant beta-catenin – cell-based, human colon tumor, dose response (AID 1045); assay type: functional;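 also: HCT116 colon tumor cells with beta catenin knocked out; cells exposed to compound for 60 hours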
# [4] = viability of PTEN-deleted HCT116 cells – cell-based, HCT116 PTEN knockout, dose response (AID 1047); assay type: functional;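 also: HCT116 colon tumor cells with PTEN knocked out; cells exposed to compound for 60 hours before readout; potency for loss of cell viability measured by luminescence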
# [5] = biological target: T3, Sentrin-specific protease 7 (Homo sapiens, UniProt Q9BQF6); assay type: functional;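 also: Luminescence-based dose-response confirmation of ultra-high-throughput screening hits, measuring inhibition of SENP7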
# T3 sequence (Q9BQF6 whole entry): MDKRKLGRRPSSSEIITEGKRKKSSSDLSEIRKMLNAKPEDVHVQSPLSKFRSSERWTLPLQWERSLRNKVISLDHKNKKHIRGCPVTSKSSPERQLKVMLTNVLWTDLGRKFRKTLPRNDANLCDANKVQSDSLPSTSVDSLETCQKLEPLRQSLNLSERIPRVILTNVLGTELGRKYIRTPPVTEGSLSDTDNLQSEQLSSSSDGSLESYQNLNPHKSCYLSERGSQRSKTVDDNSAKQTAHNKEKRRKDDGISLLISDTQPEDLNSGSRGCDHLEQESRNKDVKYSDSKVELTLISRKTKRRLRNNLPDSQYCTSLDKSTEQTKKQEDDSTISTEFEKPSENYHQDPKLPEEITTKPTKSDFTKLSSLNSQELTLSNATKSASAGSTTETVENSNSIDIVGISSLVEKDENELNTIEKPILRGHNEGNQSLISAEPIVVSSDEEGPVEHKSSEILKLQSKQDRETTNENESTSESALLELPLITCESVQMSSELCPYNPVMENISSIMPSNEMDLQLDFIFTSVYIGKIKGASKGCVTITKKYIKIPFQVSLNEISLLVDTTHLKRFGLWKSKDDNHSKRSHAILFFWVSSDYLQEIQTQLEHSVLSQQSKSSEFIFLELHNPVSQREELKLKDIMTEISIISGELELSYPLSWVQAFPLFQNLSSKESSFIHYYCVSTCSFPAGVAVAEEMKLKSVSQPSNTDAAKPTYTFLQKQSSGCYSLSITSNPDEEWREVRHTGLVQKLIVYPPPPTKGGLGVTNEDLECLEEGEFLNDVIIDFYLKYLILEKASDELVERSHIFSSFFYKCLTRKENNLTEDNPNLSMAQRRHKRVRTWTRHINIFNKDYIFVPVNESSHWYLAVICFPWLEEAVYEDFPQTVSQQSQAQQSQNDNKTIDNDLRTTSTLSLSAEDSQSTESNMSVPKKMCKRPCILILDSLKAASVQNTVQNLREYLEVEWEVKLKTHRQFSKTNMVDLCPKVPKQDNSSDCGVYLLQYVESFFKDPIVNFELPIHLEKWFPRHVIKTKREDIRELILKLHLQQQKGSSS
# [6] = biological target: T4, Sentrin-specific protease 6 (Homo sapiens, UniProt Q9GZR1); assay type: functional;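 also: Luminescence-based dose-response confirmatory assay of SENP6 inhibition, following up an ultra-high-throughput screen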
# T4 sequence (Q9GZR1 whole entry): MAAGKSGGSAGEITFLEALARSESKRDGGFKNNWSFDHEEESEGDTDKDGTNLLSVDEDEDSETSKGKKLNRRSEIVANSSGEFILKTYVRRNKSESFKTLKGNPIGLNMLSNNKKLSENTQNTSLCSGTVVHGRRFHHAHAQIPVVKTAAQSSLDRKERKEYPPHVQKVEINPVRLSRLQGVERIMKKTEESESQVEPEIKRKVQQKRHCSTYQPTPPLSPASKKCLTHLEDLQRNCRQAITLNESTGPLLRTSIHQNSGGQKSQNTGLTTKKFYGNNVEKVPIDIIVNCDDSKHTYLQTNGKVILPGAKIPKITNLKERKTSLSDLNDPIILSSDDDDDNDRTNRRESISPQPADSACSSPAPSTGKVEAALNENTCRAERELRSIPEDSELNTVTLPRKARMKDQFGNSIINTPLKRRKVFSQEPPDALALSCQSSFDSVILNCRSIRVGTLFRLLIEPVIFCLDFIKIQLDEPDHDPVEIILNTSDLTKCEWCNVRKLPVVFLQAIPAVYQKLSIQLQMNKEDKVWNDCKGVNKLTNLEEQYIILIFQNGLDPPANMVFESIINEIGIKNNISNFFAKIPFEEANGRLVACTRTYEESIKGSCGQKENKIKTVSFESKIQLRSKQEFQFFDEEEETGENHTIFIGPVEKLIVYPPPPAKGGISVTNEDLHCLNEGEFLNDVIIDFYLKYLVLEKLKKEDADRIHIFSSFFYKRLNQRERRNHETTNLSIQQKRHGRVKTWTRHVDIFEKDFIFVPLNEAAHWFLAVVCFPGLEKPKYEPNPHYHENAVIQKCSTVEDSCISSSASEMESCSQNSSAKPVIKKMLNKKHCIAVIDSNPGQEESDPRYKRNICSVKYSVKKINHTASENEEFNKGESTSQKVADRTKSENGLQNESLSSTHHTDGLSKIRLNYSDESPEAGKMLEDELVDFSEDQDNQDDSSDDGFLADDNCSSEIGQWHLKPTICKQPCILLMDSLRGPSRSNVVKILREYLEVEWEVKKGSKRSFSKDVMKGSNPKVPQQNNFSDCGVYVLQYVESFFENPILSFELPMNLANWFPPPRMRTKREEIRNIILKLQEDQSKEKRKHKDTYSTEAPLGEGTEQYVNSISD
# Caspase-3 = biological target: T5, Caspase-3 (Homo sapiens, UniProt P42574); assay type: functional;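 also: Dose-response selectivity test against caspase-3 for candidate inhibitors of sentrin-specific proteases (SENPs)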
# T5 sequence (P42574 whole entry): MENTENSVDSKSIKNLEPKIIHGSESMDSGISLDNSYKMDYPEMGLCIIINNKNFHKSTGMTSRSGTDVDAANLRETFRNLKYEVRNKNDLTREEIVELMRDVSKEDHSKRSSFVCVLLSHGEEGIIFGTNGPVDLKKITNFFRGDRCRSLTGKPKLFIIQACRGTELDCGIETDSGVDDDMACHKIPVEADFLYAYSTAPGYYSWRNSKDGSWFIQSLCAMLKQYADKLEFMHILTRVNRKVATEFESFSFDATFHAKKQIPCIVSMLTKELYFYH
# [7] = biological target: T6, Sentrin-specific protease 8 (Homo sapiens, UniProt Q96LD8); assay type: functional;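 also: luminescence read-out of SENP8 inhibition, dose-response confirmation following an ultra-high-throughput screen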
# T6 sequence (Q96LD8 whole entry): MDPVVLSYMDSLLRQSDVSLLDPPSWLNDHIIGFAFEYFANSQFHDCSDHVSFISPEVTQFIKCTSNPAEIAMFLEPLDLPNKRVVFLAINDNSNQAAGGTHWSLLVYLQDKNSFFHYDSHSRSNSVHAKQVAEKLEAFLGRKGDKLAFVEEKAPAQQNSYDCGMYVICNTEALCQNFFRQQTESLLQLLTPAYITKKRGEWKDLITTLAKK
# BJ [8] = assay: BJ-TERT fibroblast viability loss – cell-based, RAS-independent, luminescence, dose response (AID 1933); assay type: functional; conditions: Homo sapiens
# BJ [9] = assay: BJ-TERT-LT-ST fibroblast viability loss – cell-based, RAS-independent, luminescence, dose response (AID 1935); assay type: functional; conditions: Homo sapiens;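 also: BJ fibroblasts immortalized with TERT plus LT and ST oncogenes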
# BJ [10] = assay: cells; assay type: functional, cell-based; conditions: Homo sapiens
# [11] = DRD fibroblast viability loss – cell-based, non-viral oncogenic, luminescence, dose response (AID 1934); assay type: functional; conditions: Homo sapiens
# [12] = Luminescence Cell-Based Dose Retest to Confirm Inhibitors of Cancer Stem Cells. [Related pubchem assays (depositor defined):AID2717, AID2721]; assay type: functional; conditions: Homo sapiens
smiles,measurement,setting,value
C=C1[C@@H](C)[C@H]2[C@H](Cc3ccccc3)NC(=O)[C@]23OC(=O)/C=C/[C@H](O)CCC[C@@H](C)C/C=C/[C@H]3[C@@H]1O,GI50,P388/ADR,15.3 µM (inactive)
same,GI50,P388,12.4 µM (inactive)
same,GI50,SN12K1,0.31 µM (active)
C=C1C(=O)OC2/C=C(\C)CC(O)/C=C(/CO)CC(OC(=O)/C(C)=C/C)C12 (stereo unspecified),GI50,P388/ADR,16.7 µM (inactive)
same,GI50,P388,11.1 µM (inactive)
same,GI50,SN12K1,24.8 µM (inactive)
CC1=NN(Cc2ccccc2)C(=O)/C1=C/c1ccc(N(C)C)cc1,AC50,[1],4.15 µM (active)
same,IC50,Nonstructural protein 1,50.9 µM (active)
same,EC50,Protein RecA,1.22 µM (active)
COc1ccc(/C=N\NC(=O)c2ccccc2F)cc1COc1ccc(F)cc1F,IC50,[2],> 80 µM (inactive)
Cc1cn([C@H]2C[C@H](N=[N+]=[N-])[C@@H](CO)O2)c(=O)[nH]c1=O [ZIDOVUDINE],GI50,P388/ADR,> 100 µM (inactive)
same,GI50,P388,99.3 µM (inactive)
same,GI50,SN12K1,> 100 µM (inactive)
CCOc1cc(C(=O)N/N=C/C(Br)=C/c2ccccc2)cc(OCC)c1OCC,IC50,[2],> 80 µM (inactive)
same,EC50,[3],1.34 µM (active)
same,EC50,[4],1.39 µM (active)
C=C1C(=O)O[C@H]2C1[C@H](OC(=O)/C(C)=C\COC(C)=O)C[C@]1(CO1)[C@@H]1[C@H](O)[C@H]3O[C@@]3(C)[C@@H]12 (stereo partly specified),GI50,P388/ADR,8.13 µM (inactive)
same,GI50,P388,3.4 µM (inactive)
same,GI50,SN12K1,24.8 µM (inactive)
CNC(=O)OCc1nc([S+](C)[O-])n(C)c1COC(=O)NC (stereo unspecified),GI50,P388/ADR,> 100 µM (inactive)
same,GI50,P388,> 100 µM (inactive)
same,GI50,SN12K1,> 100 µM (inactive)
CCOC(=O)CSC1=C(C#N)C(c2ccc(C)s2)CC(=O)N1 (stereo unspecified),IC50,[2],> 80 µM (inactive)
Cc1ccc(/C=N/OC(=O)c2nn(C)cc2Cl)cc1,IC50,[5],13 µM (active)
same,IC50,[6],39 µM (active)
same,IC50,Caspase-3,24 µM (active)
same,IC50,[7],54.7 µM (active)
C=C(C)COc1ccc(-c2n[nH]cc2-c2ccc(OC)c(OC)c2)c(O)c1,IC50,[2],34.3 µM (inactive)
same,EC50,BJ [8],8.31 µM (active)
same,EC50,BJ [9],2.48 µM (active)
same,EC50,BJ [10],1.84 µM (active)
same,EC50,[11],2.4 µM (active)
same,AC50,[12],0.882 µM (active)
O=C(Nc1ccc2c(c1)CCC2)c1ccc(Br)s1,IC50,[5],3.4 µM (active)
same,IC50,[6],5.03 µM (active)
same,IC50,Caspase-3,17.5 µM (active)
same,IC50,[7],4.31 µM (active)
COc1cccc(-c2nnc(-c3ccccc3[N+](=O)[O-])o2)c1,IC50,[5],10.4 µM (active)
same,IC50,[6],> 100 µM (inactive)
same,IC50,Caspase-3,19.1 µM (active)
same,IC50,[7],> 100 µM (inactive)
